Assay results as given in the NIST ThermoML archive (doi:10.1016/j.jct.2013.11.021).

How the values were obtained:
[1] = mn = molality of the nth substance listed, in mol/kg; details: 101 kPa, Liquid; for speed of sound: Sing-around technique in a fixed-path interferometer; for mass density: Vibrating tube method
[2] = 313.15 K; 101 kPa; Liquid; Sing-around technique in a fixed-path interferometer

O=C[C@H](O)[C@@H](O)[C@H](O)[C@H](O)CO [D-glucose] + O
[1]
Details	mass density, 298.15 K [kg/m3]	mass density, 303.15 K [kg/m3]	mass density, 308.15 K [kg/m3]	mass density, 313.15 K [kg/m3]	mass density, 318.15 K [kg/m3]	speed of sound, 298.15 K [m/s]	speed of sound, 303.15 K [m/s]	speed of sound, 308.15 K [m/s]	speed of sound, 313.15 K [m/s]	speed of sound, 318.15 K [m/s]
m1 = 0.04842	1000.33	998.923	997.289	995.463	993.441	1499.3	1512.1	–	1531.8	–
m1 = 0.06669	1001.56	1000.14	998.498	996.672	994.638	–	1513.2	1523.1	1532.9	1539.7
m1 = 0.0976	1003.62	1002.18	1000.53	998.7	996.647	1502.3	1515.1	1525	1534.6	1541.4
m1 = 0.1066	1004.22	1002.77	1001.12	999.285	997.23	1502.9	1515.6	1525.5	1535.1	1541.9
m1 = 0.1235	1005.32	1003.87	1002.21	1000.38	998.311	1504	1516.7	1526.6	1536.1	1542.8
m1 = 0.1462	–	1005.34	1003.67	1001.84	999.761	1505.4	1518.1	–	1537.3	–

O [water]
Details	speed of sound [m/s]
[2]	1528.9

O=C[O-].[NH3+]CCCO [3-hydroxypropylammonium formate] + O
[1]
Details	mass density, 298.15 K [kg/m3]	mass density, 303.15 K [kg/m3]	mass density, 308.15 K [kg/m3]	mass density, 313.15 K [kg/m3]	mass density, 318.15 K [kg/m3]	speed of sound, 298.15 K [m/s]	speed of sound, 303.15 K [m/s]	speed of sound, 308.15 K [m/s]	speed of sound, 313.15 K [m/s]	speed of sound, 318.15 K [m/s]
m1 = 0.1	998.637	997.222	995.623	993.757	991.751	1501.7	1513.4	1523.7	1532.4	1539.7
m1 = 0.2	1000.2	998.76	997.068	995.252	993.147	1507.7	1519	1528.9	1538.2	1545.2
m1 = 0.3	1001.76	1000.3	998.625	996.753	994.624	1513.5	1524.4	1533.9	1542	1548.6
m1 = 0.4	1003.33	1001.84	999.944	998.26	996.183	1519.7	1530.3	1539.6	1547.4	1553.8
